Measured values: the METLIN SMRT retention time set (Domingo-Almenara et al. 2019)

Assay: gradient 5% acetonitrile 3 min, to 50% in 2 min, to 85% in 15 min, held 3 min, 100 µL/min
Details: column: Zorbax Extend-C18 2.1 x 50 mm; eluents: water / acetonitrile, 0.1% formic acid
In short: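 Using water and acetonitrile that each contained 0.1% formic acid, mixtures of ~100 pure standards were separated at 100 μL/min on a Zorbax Extend-C18 column (2.1 × 50 mm, 1.8 μm). The HPLC fed a quadrupole time-of-flight mass spectrometer working in positive and negative ionization mode, with dead and dwell volumes of 40 μL and 900 μL. Data were acquired over 3 months. Retention time was read from computationally picked adduct peaks after manual inspection of each.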

SMILES	RP-LC retention time [s]
CC(=O)Nc1ccc(C(=O)N2CCN(c3ccc(F)cc3)CC2)c(N2CCCCC2)c1	833
CCN1C(=O)c2ccccc2Oc2ccc(C(=O)NCc3ccc(C)o3)cc21	910
Cc1ccc(-c2nc(C3CC(=O)N(c4ccc(Cl)cc4)C3)no2)cc1 (centres undefined)	978
COc1ccc(-c2cc3c(=O)n(Cc4ccc(F)cc4)ccn3n2)cc1OC	913
O=C(NCCc1nc(-c2ccc3c(c2)OCO3)n[nH]1)c1ccc(F)c(Cl)c1	743
CC(C)n1c(CN2CCN(C)CC2)nc2cc(NC(=O)c3cccs3)ccc21	565
COc1ccc(-c2noc(-c3nc(C)no3)n2)cc1OC	888
Cc1ccc(-c2nc3cccnc3n2CCN2CCN(C(=O)NC3CCCC3)CC2)cc1	627
CCOC(=O)c1ccccc1NC(=O)c1c2c(cn(-c3ccccc3)c1=O)C(=O)CC(C)(C)C2	1120
COc1nn(C)cc1C(=O)Nc1nnc(C2CC(=O)N(c3ccccc3)C2)o1 (centres undefined)	610
CCCS(=O)(=O)c1nc2ccc(NS(=O)(=O)c3cc(F)cc(F)c3)cc2s1	952
COc1ccc(CNC(=O)CSc2cc(N3CCN(c4ccccc4OC)CC3)ncn2)cc1	1090
Cc1cccc(N2CCN(C(=O)C3c4ccccc4CCN3C(=O)C3CC3)CC2)c1C (centres undefined)	1080
CC(C)NC(=O)c1ccc2c(c1)CCCN2S(=O)(=O)c1ccccc1	878
CC1CS(=O)(=O)N(c2ccc(C(=O)N3CCN(c4ccccn4)CC3)c(Cl)c2)C1=O (centres undefined)	576
O=C(CN1C(=O)CCc2cc(Br)ccc21)N1CCN(c2ccc(F)cc2)CC1	949
CCCc1noc(-c2ccnc(-n3cnc(C(=O)N4CCCC(C)C4)c3)c2)n1 (centres undefined)	944
CCCN1CCN(c2cc(C(=O)O)c3cc(NS(=O)(=O)c4ccccc4C)ccc3n2)CC1	605
Cc1ccc(Nc2c(-c3cccc(O)c3)nc3cnccn23)c(C)c1	750
CC(C)(C)NCC(O)COc1nsnc1N1CCOCC1 (centres undefined)	626
Cc1ccc(Cl)cc1NC(=O)N1CCC(n2cnc3cccnc32)CC1	682
Cc1[nH]c(C)c(S(=O)(=O)N2CCC(C(=O)N(C)C3CCCCC3)CC2)c1C(=O)N1CCCCC1	762

SMILES	RP-LC retention time [s]
O=c1ccc(-c2ccccc2Br)nn1Cc1nc(-c2ccc3c(c2)OCO3)no1	1040
Cc1nc(N2CCOCC2)c2c(C(=O)Nc3ccccc3)c(C)oc2n1	778
CCOC(=O)c1c(C)n(-c2ccc(N(C)C)cc2)c2ccc(OCC(N)=O)cc12	938
Cc1ccc(CNC(=O)c2cccc(-c3cnc(N4CCCC4)nc3)c2)o1	817
CCC(=O)Nc1ccc(-n2cnc(C(=O)N3CCN(c4ccc(OC)cc4)CC3)c2)nc1	653
CC(C)NC(=O)Cn1ccn2nc(-c3ccccc3)c(CO)c2c1=O	666
CCOC(=O)c1c(C)n(Cc2ccco2)c2ccc(OCC)cc12	617
CCn1cc(CCNC(=O)Nc2ccsc2C(=O)OC)c2cccnc21	762
CCc1cccc(NC(=O)Cn2nc3cc(C)nc(Nc4ccc(C)cc4)n3c2=O)c1	1140
CCc1nnc2nc(N3CCN(C(=O)c4ccc(N(C)C)cc4)CC3)cc(C)n12	609
O=C(NCCc1cccs1)c1nnc(-c2ccc(S(=O)(=O)N3CCCCC3)cc2)o1	977
O=C([C@H]1C[C@@H](F)CN1C(=O)Nc1cccc(Cl)c1)N1CCOCC1	653
COc1ccccc1Cc1nc(-c2ccccc2)nn(C2OC(COC(C)=O)C(OC(C)=O)C(OC(C)=O)C2OC(C)=O)c1=S (centres undefined)	1190
O=C(Nc1nnc(C2CCCCC2)s1)C1CCN(C(=O)c2ccccc2)CC1	789
Cc1cc(C)cc(N2C(=O)CN(S(C)(=O)=O)CC2(C)C(=O)NCc2ccc(F)cc2)c1 (centres undefined)	827
COc1ccc(-c2nc3n(n2)C2(CCCCC2)[C@@H]2CCCC[C@@H]2N3C(=O)c2cccs2)cc1	1270
COc1cccc(NC(=O)Cn2nc3cc(C)nc(N4CCCC4)n3c2=O)c1	760
COc1ccc(N2CC(c3noc(-c4ccccc4F)n3)CC2=O)cc1OC (centres undefined)	818
O=C(c1ccccn1)N1CCCCC1c1nncn1CC1CC1 (centres undefined)	608
Cc1ccc(-c2cc3c(=O)n(Cc4noc(CN5CCCCCC5)n4)ccn3n2)c(C)c1	724
O=C1C2N=NN(Cc3nc(-c4ccccc4Cl)no3)C2C(=O)N1c1ccc2c(c1)OCO2 (centres undefined)	1020
CCN(CC)C(=O)N1CCC2(CC1)C(OC)C(=O)N2c1cccc(F)c1 (centres undefined)	937

SMILES	RP-LC retention time [s]
CC(=O)Nc1cccc(C2OC(c3ccc(Cl)cc3Cl)=NN2C(C)=O)c1 (centres undefined)	914
CCC1(O)CCC12CCN(C(=O)CCC1CCCC1)CC2 (centres undefined)	924
O=C(Cn1ccc2ccc(N3CCOCC3)nc21)NCC1CCCCC1	924
Cc1ccc(NC(=O)C2CCN(S(=O)(=O)c3cn(C(C)C)cn3)CC2)c(Br)c1	838
CC1CCCN(CCCNC(=O)c2cccc3c2SCCC3=O)C1 (centres undefined)	590
COc1ccccc1-c1noc(C2CCCN2C(=O)c2cccs2)n1 (centres undefined)	849
Cc1noc(C)c1-c1ccc(S(=O)(=O)N2CCCCCC2)cc1	1020
COc1ccccc1N1CCN(Cc2nc(-c3ccccc3)no2)CC1	798
COc1ccc(Cc2nn3c(CSc4ccccc4)nnc3s2)cc1	937
CCc1nc2cc(N3CCCC(C(=O)NCCOC)C3)cnc2nc1CC (centres undefined)	662
COc1cc2nc(C(=O)N3CCCCC3)cc(Nc3ccc(Br)c(C)c3)c2cc1OC	779
CCN(C(=O)Cn1nc2cc(C)nc(Nc3ccc(C)c(C)c3)n2c1=O)c1ccccc1	1230
CCCNC(=O)CC1CCN(C(=O)c2[nH]c(C)c(C(=O)OC(C)C)c2C)CC1	724
Cn1nc(-c2nc(C3CC3)no2)c2c1CCN(C(=O)c1ccc(F)c(F)c1)C2	831
Cc1ccc(NC(=O)Cn2c(=O)n(-c3ccccc3)c3ncccc32)cc1	840
Cc1cc(C(=O)Nc2ccc(Cl)cc2)n(CC(=O)Nc2ccc(F)cc2)n1	946
CC1CCCN(c2ccn3c(=O)n(CC(=O)NCc4ccc(F)cc4F)nc3n2)C1 (centres undefined)	772
O=C(N[C@H]1C[C@@H]2C[C@H]1N(C(=O)c1ccco1)C2)c1ccccc1	671
CC(C)N1CCN(S(=O)(=O)c2ccc(-c3nnc(C4CCC4)o3)o2)CC1	637
CCOc1ccc(N2CCn3c2nn(Cc2cccc(C(F)(F)F)c2)c(=O)c3=O)cc1	915
